Results on three compounds are retold here after US8017630B2 (priority 2004, dated 2011).

In one series the test system is 5HT uptake. It counts as biochemical, rat.
A further series relates to NA uptake. It counts as biochemical, rat.

Read-outs that look alike come from different tables or passages of the source.

As usually defined, the melting point is the temperature of the solid-liquid transition.

Regarding `CN(C)C1(c2ccccn2)CCC(CC(=O)NCCc2c[nH]c3ccccc23)CC1.Cl` (centres unmarked) [Example 47, 2-(4-Dimethylamino-4-pyridin-2-ylcyclohexyl)-N-[2-(1H-indol-3-yl)ethyl]acetamide hydrochloride], the melting point was in the range of 150 to 153 °C. In addition, the “5HT uptake % (10)” value in the series on 5HT uptake (hydrochloride) is 46%. In addition, in the series on NA uptake (hydrochloride), the “NA uptake % (10)” value was found to be 63%.

With `CN(C)C1(c2ccccn2)CCC(CC(=O)NCCc2c[nH]c3ccccc23)CC1.Cl` (centres unmarked) [Example 48, 2-(4-Dimethylamino-4-pyridin-2-ylcyclohexyl)-N-[2-(1H-indol-3-yl)ethyl]acetamide hydrochloride], in the series with 5HT uptake (hydrochloride), the “5HT uptake % (10)” value came out at 85%. For the same compound, the “NA uptake % (10)” value in the series on NA uptake (hydrochloride) was 74%.

As for `CN(C)C1(c2ccccn2)CCC(CC(=O)NCCCc2ccccc2)CC1.Cl` (centres unmarked) [Example 49, 2-(4-Dimethylamino-4-pyridin-2-ylcyclohexyl)-N-(3-phenylpropyl)acetamide hydrochloride], the melting point fell in the range of 218 to 220 °C. In addition, in the series on 5HT uptake, the “5HT uptake % (10)” value stood at 32%. The “NA uptake % (10)” value with NA uptake was found to be 94%.
